Earlier results, collected in US20250195455A1, “COMBINATION NASAL AND ORAL THERAPY FOR WEIGHT LOSS” (priority 2022, published 2025).
Where two headings read alike, the source gives them in different places.

Conditions: for evidence of weight loss: no drug trials for weight loss; for Average weight loss/one year: vs. 3% placebo

| Compound | patients that have 5% weight loss/12 weeks [%] | patients that have 10% weight loss/12 weeks [%] | Average weight loss/one year [%] | Average weight loss vs. placebo (vs. placebo) [kg./year] | other results |
| --- | --- | --- | --- | --- | --- |
| CNCCC(Oc1ccc(C(F)(F)F)cc1)c1ccccc1 (centres unmarked) [Fluoxetine] |  |  |  |  | evidence of weight loss: No evidence of weight loss |
| CCN(CC)C(C)C(=O)c1ccccc1 (centres unmarked) [Diethylpropion] | 80 | 50 | 10 |  |  |
| CN[C@H]1CC[C@@H](c2ccc(Cl)c(Cl)c2)c2ccccc21 [Sertraline] |  |  |  |  | evidence of weight loss: No evidence of weight loss |
| Albeglutide |  |  |  | 2.9 |  |
| C[C@H]1CNCCc2ccc(Cl)cc21 [Lorcaserin] |  |  |  |  | weight loss/year vs. placebo (per year, vs. placebo): 3-5% |
| Dulaglutide |  |  |  | 2.9 |  |
| CC1(C)O[C@@H]2[C@@H](CO[C@@]3(COS(N)(=O)=O)OC(C)(C)O[C@@H]23)O1 [Topiramate] |  |  |  |  | efficacy (vs. placebo) (vs. placebo): Minimal, if any efficacy |
| Semaglutide (HAEGTFTSDVSSYLEGQAAKEFIAWLVKGRG; Glucagon-like peptide 1(7-37) semaglutide; Aib8, R34K, C18 diacid side chain; UniProt P01275 98-128, looked up) [GLP-1 agonist] |  |  |  | 2.9 |  |
| C[C@@H](Cc1ccccc1)N(C)Cc1ccccc1 [Benzphetamine] | 80 | 50 | 10 |  |  |
| Lixisenatide |  |  |  | 2.9 |  |
| CC(C)(N)Cc1ccccc1 [Phentermine] | 80 | 50 | 10 |  |  |
| CCCCCCCCCCC[C@@H](C[C@@H]1OC(=O)[C@H]1CCCCCC)OC(=O)[C@H](CC(C)C)NC=O [Orlistat] |  |  |  |  | weight loss (vs. placebo)/6 months (6 months, vs. placebo): 5%; net loss (decreased fat absorption): approximately 500 kcal/day; net loss (equivalent of the kcal/day net loss): 1 lb./week |
| C[C@H]1[C@H](c2ccccc2)OCCN1C [Phendimetrazine] | 80 | 50 | 10 |  |  |
